Assay results: patent US20250163057A1, “DCN-1 MODULATING COMPOUNDS AND METHODS OF USE THEREOF” (Cellarity, Inc., priority 2023, published 2025)
Read-outs that look alike come from different tables or passages of the source.

Target: DCN1 (DCUND1) protein PONY domain (Homo sapiens (Human), UniProt Q96GG9)
Test: TR-FRET assay, DCN1 binding with FAM-labeled probe
Experimental: A TR-FRET assay was performed to evaluate the ability of the compounds to bind the DCN-1 protein.
The TR-FRET assay was designed following the Scott et al. protocol (Scott et al., Nat Chem Biol. 2017 August; 13(8): 850-857. Doi:10.1038/nchembio.2386). The recombinant form of the DCN1 (DCUND1) protein PONY domain was produced using an E. coli expression system at Viva Biotech (China). The DCN1 protein was biotinylated (EZ sulfo-NHS-LC-biotin; Thermofisher) for labeling with streptavidin terbium (Tb) cryptate in the reaction. The probe was changed to a non-covalent DCN1 inhibitor labeled with carboxyfluorescein (FAM; Zhou et al., Nat Commun. 2017; 8: 1150. Doi: 10.1038/s41467-017-01243-7). Buffer conditions were modified to enhance protein stability by exchanging Tween20 for TritonX and increasing NaCl to 200 mM. The compounds were screened against 5 nM DCN1 and 20 nM FAM-probe or 0.31 nM DCN1 and 900 nM total probe (100 nM FAM-labeled plus 800 nM unlabeled). The TR-FRET ratio between Tb-DCN1 and the FAM-labeled probe was measured in a 384-well opti-plate (Perkin Elmer) using a plate reader (BMG) at 1, 5, and 24 hrs after treatment with compound (final DMSO concentration of 0.1%).

[1] = 24 hr after treatment with compound, read-out: TR FRET IC50 24 hr
[2] = TR FRET IC50 1 hr (nM), 1 hr after treatment with compound

Chain of DCN1 (DCUND1) protein PONY domain (Q96GG9 60-248): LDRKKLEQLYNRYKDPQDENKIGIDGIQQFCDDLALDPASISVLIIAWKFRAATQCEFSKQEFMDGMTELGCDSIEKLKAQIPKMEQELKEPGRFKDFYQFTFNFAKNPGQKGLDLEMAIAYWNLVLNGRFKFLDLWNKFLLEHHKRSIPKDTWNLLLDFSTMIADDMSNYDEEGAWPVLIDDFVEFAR

CCN1C(=O)[C@@H](NC(=O)c2cccc(C(F)(F)F)c2)[C@@H](c2ccc(F)cc2)c2c(C(=O)N3CCC[C@@H]3C#N)nn(-c3ccccc3)c21 (mixture of isomers) [Compound I-94]
IC50 [1]: 200 to 1000 nM
IC50 [2]: 200 to 1000 nM

CCN1C(=O)[C@@H](NC(=O)c2cccc(C(F)(F)F)c2)[C@@H](c2ccc(F)cc2)c2c(C(=O)N3CC[C@H](C#N)C3)nn(-c3ccccc3)c21 (mixture of isomers) [Compound I-137]
IC50 [1]: 200 to 1000 nM
IC50 [2]: 200 to 1000 nM

CCN1C(=O)[C@@H](NC(=O)c2cccc(C(F)(F)F)c2)[C@@H](c2ccc(F)cc2)c2c(C(=O)N[C@H](C)C#N)nn(-c3ccccc3)c21 (mixture of isomers) [Compound I-157]
IC50 [1]: 200 to 1000 nM
IC50 [2]: 1000 to 3000 nM

C/C=C/S(=O)(=O)NCc1nn(-c2ccccc2)c2c1[C@H](c1ccc(F)cc1)[C@H](NC(=O)c1cccc(C(F)(F)F)c1)C(=O)N2CC (racemic) [Compound I-6]
IC50 [1]: ≤ 200 nM
IC50 [2]: 200 to 1000 nM

CCN1C(=O)[C@@H](NC(=O)c2cccc(C(F)(F)F)c2)[C@@H](c2ccc(F)cc2)c2c([C@H](O)CNC#N)nn(-c3ccccc3)c21 (racemic) [Compound I-9, rac-N-((4R,5R)-3-(2-cyanamido-1-hydroxyethyl)-7-ethyl-4-(4-fluorophenyl)-6-oxo-1-phenyl-4,5,6,7-tetrahydro-1H-pyrazolo[3,4-b]pyridin-5-yl)-3-(trifluoromethyl)benzamide]
IC50 [1]: 1000 to 3000 nM
IC50 [2]: 200 to 1000 nM

CCN1C(=O)[C@@H](NC(=O)c2cccc(C(F)(F)F)c2)[C@@H](c2ccc(F)cc2)c2c(NC(=O)C#CCN3CCOCC3)nn(-c3ccccc3)c21 (racemic) [Compound I-11, rac-N-((4R,5R)-7-ethyl-4-(4-fluorophenyl)-3-(4-morpholinobut-2-ynamido)-6-oxo-1-phenyl-4,5,6,7-tetrahydro-1H-pyrazolo[3,4-b]pyridine-5-yl)-3-(trifluoromethyl)benzamide]
IC50 [1]: ≤ 200 nM
IC50 [2]: 200 to 1000 nM

C/C=C(\CN1CCOCC1)C(=O)NCc1nn(-c2ccccc2)c2c1[C@H](c1ccc(F)cc1)[C@H](NC(=O)c1cccc(C(F)(F)F)c1)C(=O)N2CC (racemic) [Compound I-14]
IC50 [1]: ≤ 200 nM
IC50 (read-out: TR FRET IC50 1 hr, 1 hr after treatment with compound): ≤ 200 nM

CCN1C(=O)[C@@H](NC(=O)c2cccc(C(F)(F)F)c2)[C@@H](c2ccc(F)cc2)c2c(CNC(=O)/C=C/C(=O)NCCO)nn(-c3ccccc3)c21 (racemic) [Compound I-15, rac-N1-(((4R,5R)-7-ethyl-4-(4-fluorophenyl)-6-oxo-1-phenyl-5-(3-(trifluoromethyl)benzamido)-4,5,6,7-tetrahydro-1H-pyrazolo[3,4-b]pyridine-3-yl)methyl)-N4-(2-hydroxyethyl)fumaramide]
IC50 [1]: 1000 to 3000 nM
IC50 [2]: 1000 to 3000 nM

C=C(CC(=O)OC)C(=O)NCc1nn(-c2ccccc2)c2c1[C@H](c1ccc(F)cc1)[C@H](NC(=O)c1cccc(C(F)(F)F)c1)C(=O)N2CC (racemic) [Compound I-17]
IC50 [1]: 1000 to 3000 nM
IC50 [2]: 1000 to 3000 nM

C=C(Cc1nn(-c2ccccc2)c2c1[C@H](c1ccc(F)cc1)[C@H](NC(=O)c1cccc(C(F)(F)F)c1)C(=O)N2CC)C(=O)O (racemic) [Compound I-21, rac-2-(((4R,5R)-7-ethyl-4-(4-fluorophenyl)-6-oxo-1-phenyl-5-(3-(trifluoromethyl)benzamido)-4,5,6,7-tetrahydro-1H-pyrazolo[3,4-b]pyridin-3-yl)methyl)acrylic acid]
IC50 [1]: 1000 to 3000 nM
IC50 [2]: 1000 to 3000 nM

CCN1C(=O)[C@@H](NC(=O)c2cccc(C(F)(F)F)c2)[C@@H](c2ccc(F)cc2)c2c(CNC(=O)C3(C#N)CCOCC3)nn(-c3ccccc3)c21 (racemic) [Compound I-22, rac-4-cyano-N-(((4R,5R)-7-ethyl-4-(4-fluorophenyl)-6-oxo-1-phenyl-5-(3-(trifluoromethyl)benzamido)-4,5,6,7-tetrahydro-1H-pyrazolo[3,4-b]pyridine-3-yl)methyl)tetrahydro-2H-pyran-4-carboxamide]
IC50 [1]: 1000 to 3000 nM
IC50 [2]: 1000 to 3000 nM
